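Compound exposure: 48 hours, 5 concentrations, 96-well plates. TGI marks complete inhibition of growth.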
Legend:
Assay in all cases: NCI-60 cell line screen, 48 h
CCRF-CEM leukemia = test system: CCRF-CEM leukemia
SK-MEL-5 melanoma = test system: SK-MEL-5 melanoma
NCI-H226 lung = test system: NCI-H226 lung
HOP-62 NSCLC = test system: HOP-62 NSCLC
M14 melanoma = test system: M14 melanoma
IGROV1 ovarian = test system: IGROV1 ovarian
KM12 colon = test system: KM12 colon
SF-539 CNS = test system: SF-539 CNS
SNB-19 CNS = test system: SNB-19 CNS
OVCAR-3 ovarian = test system: OVCAR-3 ovarian
ACHN renal = test system: ACHN renal
SNB-75 CNS = test system: SNB-75 CNS
COLO 205 colon = test system: COLO 205 colon
OVCAR-8 ovarian = test system: OVCAR-8 ovarian
OVCAR-5 ovarian = test system: OVCAR-5 ovarian
M19-MEL melanoma = test system: M19-MEL melanoma
HCT-15 colon = test system: HCT-15 colon
NCI-H460 lung = test system: NCI-H460 lung
OVCAR-4 ovarian = test system: OVCAR-4 ovarian
DLD-1 colon = test system: DLD-1 colon
EKVX NSCLC = test system: EKVX NSCLC
NCI-H522 lung = test system: NCI-H522 lung
UACC-257 melanoma = test system: UACC-257 melanoma
U251 CNS = test system: U251 CNS
SF-295 CNS = test system: SF-295 CNS
LOX IMVI melanoma = test system: LOX IMVI melanoma
UO-31 renal = test system: UO-31 renal
SK-MEL-28 melanoma = test system: SK-MEL-28 melanoma
SR leukemia = test system: SR leukemia
XF 498 CNS = test system: XF 498 CNS
CAKI-1 renal = test system: CAKI-1 renal
786-0 renal = test system: 786-0 renal
HCC-2998 colon = test system: HCC-2998 colon
SF-268 CNS = test system: SF-268 CNS
A549 NSCLC = test system: A549 NSCLC
NCI-H23 lung = test system: NCI-H23 lung
SW-620 colon = test system: SW-620 colon
HOP-18 NSCLC = test system: HOP-18 NSCLC
DMS 114 small cell lung = test system: DMS 114 small cell lung
SNB-78 CNS = test system: SNB-78 CNS
UACC-62 melanoma = test system: UACC-62 melanoma
HT29 colon = test system: HT29 colon
MOLT-4 leukemia = test system: MOLT-4 leukemia
SN12C renal = test system: SN12C renal
MALME-3M melanoma = test system: MALME-3M melanoma
DMS 273 small cell lung = test system: DMS 273 small cell lung
SK-OV-3 ovarian = test system: SK-OV-3 ovarian
SK-MEL-2 melanoma = test system: SK-MEL-2 melanoma
KM20L2 colon = test system: KM20L2 colon
HOP-92 NSCLC = test system: HOP-92 NSCLC
K-562 leukemia = test system: K-562 leukemia
HCT-116 colon = test system: HCT-116 colon
RXF 393 renal = test system: RXF 393 renal
A498 renal = test system: A498 renal
TK-10 renal = test system: TK-10 renal
LXFL 529 NSCLC = test system: LXFL 529 NSCLC
HL-60(TB) leukemia = test system: HL-60(TB) leukemia
RPMI-8226 leukemia = test system: RPMI-8226 leukemia

Nc1nc2c(nnn2C2C=C(CO)C(O)C2O)c(=O)[nH]1 (configuration not stated)
TGI (CCRF-CEM leukemia): > 100 µM | TGI (SK-MEL-5 melanoma): > 100 µM | TGI (NCI-H226 lung): > 100 µM | TGI (HOP-62 NSCLC): > 100 µM | TGI (M14 melanoma): > 100 µM | TGI (IGROV1 ovarian): > 100 µM | TGI (KM12 colon): > 100 µM | TGI (SF-539 CNS): > 100 µM | TGI (SNB-19 CNS): > 100 µM | TGI (OVCAR-3 ovarian): > 100 µM | TGI (ACHN renal): > 100 µM | TGI (SNB-75 CNS): > 100 µM | TGI (COLO 205 colon): > 100 µM | TGI (OVCAR-8 ovarian): > 100 µM | TGI (OVCAR-5 ovarian): > 100 µM | TGI (M19-MEL melanoma): > 100 µM | TGI (HCT-15 colon): > 100 µM | TGI (NCI-H460 lung): > 100 µM | TGI (OVCAR-4 ovarian): > 100 µM | TGI (DLD-1 colon): > 100 µM | TGI (EKVX NSCLC): > 100 µM | TGI (NCI-H522 lung): > 100 µM | TGI (UACC-257 melanoma): > 100 µM | TGI (U251 CNS): > 100 µM | TGI (SF-295 CNS): > 100 µM | TGI (LOX IMVI melanoma): > 100 µM | TGI (UO-31 renal): > 100 µM | TGI (SK-MEL-28 melanoma): > 100 µM | TGI (SR leukemia): > 100 µM | TGI (XF 498 CNS): > 100 µM | TGI (CAKI-1 renal): > 100 µM | TGI (786-0 renal): > 100 µM | TGI (HCC-2998 colon): > 100 µM | TGI (SF-268 CNS): > 100 µM | TGI (A549 NSCLC): > 100 µM | TGI (NCI-H23 lung): > 100 µM | TGI (SW-620 colon): > 100 µM | TGI (HOP-18 NSCLC): > 100 µM | TGI (DMS 114 small cell lung): > 100 µM | TGI (SNB-78 CNS): > 100 µM | TGI (UACC-62 melanoma): > 100 µM | TGI (HT29 colon): > 100 µM | TGI (MOLT-4 leukemia): > 100 µM | TGI (SN12C renal): > 100 µM | TGI (MALME-3M melanoma): > 100 µM | TGI (DMS 273 small cell lung): > 100 µM | TGI (SK-OV-3 ovarian): > 100 µM | TGI (SK-MEL-2 melanoma): > 100 µM | TGI (KM20L2 colon): > 100 µM | TGI (HOP-92 NSCLC): > 100 µM | TGI (K-562 leukemia): > 100 µM | TGI (HCT-116 colon): > 100 µM | TGI (RXF 393 renal): > 100 µM | TGI (A498 renal): > 100 µM | TGI (TK-10 renal): > 100 µM | TGI (LXFL 529 NSCLC): > 100 µM

CC(=O)Nc1ccc(S(=O)(=O)Nc2cnc3ccccc3n2)cc1
TGI (CCRF-CEM leukemia): > 100 µM | TGI (SK-MEL-5 melanoma): > 100 µM | TGI (NCI-H226 lung): > 100 µM | TGI (HOP-62 NSCLC): > 100 µM | TGI (M14 melanoma): > 100 µM | TGI (IGROV1 ovarian): > 100 µM | TGI (KM12 colon): > 100 µM | TGI (SF-539 CNS): > 100 µM | TGI (HL-60(TB) leukemia): > 100 µM | TGI (SNB-19 CNS): > 100 µM | TGI (OVCAR-3 ovarian): > 100 µM | TGI (ACHN renal): > 100 µM | TGI (SNB-75 CNS): > 100 µM | TGI (COLO 205 colon): > 100 µM | TGI (OVCAR-8 ovarian): > 100 µM | TGI (OVCAR-5 ovarian): > 100 µM | TGI (M19-MEL melanoma): > 100 µM | TGI (HCT-15 colon): > 100 µM | TGI (NCI-H460 lung): > 100 µM | TGI (OVCAR-4 ovarian): > 100 µM | TGI (DLD-1 colon): > 100 µM | TGI (EKVX NSCLC): > 100 µM | TGI (NCI-H522 lung): > 100 µM | TGI (UACC-257 melanoma): > 100 µM | TGI (U251 CNS): > 100 µM | TGI (SF-295 CNS): > 100 µM | TGI (LOX IMVI melanoma): > 100 µM | TGI (UO-31 renal): > 100 µM | TGI (SK-MEL-28 melanoma): > 100 µM | TGI (SR leukemia): > 100 µM | TGI (XF 498 CNS): > 100 µM | TGI (CAKI-1 renal): > 100 µM | TGI (786-0 renal): > 100 µM | TGI (HCC-2998 colon): > 100 µM | TGI (SF-268 CNS): > 100 µM | TGI (RPMI-8226 leukemia): > 100 µM | TGI (A549 NSCLC): > 100 µM | TGI (NCI-H23 lung): > 100 µM | TGI (SW-620 colon): > 100 µM | TGI (HOP-18 NSCLC): > 100 µM | TGI (DMS 114 small cell lung): > 100 µM | TGI (UACC-62 melanoma): > 100 µM | TGI (HT29 colon): > 100 µM | TGI (MOLT-4 leukemia): > 100 µM | TGI (SN12C renal): > 100 µM | TGI (MALME-3M melanoma): > 100 µM | TGI (DMS 273 small cell lung): > 100 µM | TGI (SK-OV-3 ovarian): > 100 µM | TGI (SK-MEL-2 melanoma): > 100 µM | TGI (KM20L2 colon): > 100 µM | TGI (HOP-92 NSCLC): > 100 µM | TGI (K-562 leukemia): > 100 µM | TGI (RXF 393 renal): > 100 µM | TGI (A498 renal): > 100 µM | TGI (TK-10 renal): > 100 µM | TGI (LXFL 529 NSCLC): > 100 µM

COC(=O)/C(=C1\OC(=O)C(c2ccc(Cl)cc2)=C1O)c1ccc(Cl)cc1
TGI (CCRF-CEM leukemia): > 100 µM | TGI (NCI-H226 lung): 58.5 µM | TGI (HOP-62 NSCLC): 41.4 µM | TGI (M14 melanoma): 97.5 µM | TGI (IGROV1 ovarian): > 100 µM | TGI (KM12 colon): 67.8 µM | TGI (SF-539 CNS): 67.7 µM | TGI (HL-60(TB) leukemia): 32.9 µM | TGI (SNB-19 CNS): 94.5 µM | TGI (OVCAR-3 ovarian): 87.6 µM | TGI (ACHN renal): 79.2 µM | TGI (SNB-75 CNS): 73 µM | TGI (COLO 205 colon): 45 µM | TGI (OVCAR-8 ovarian): > 100 µM | TGI (OVCAR-5 ovarian): 79.5 µM | TGI (M19-MEL melanoma): 66.2 µM | TGI (NCI-H460 lung): 92.4 µM | TGI (OVCAR-4 ovarian): > 100 µM | TGI (DLD-1 colon): > 100 µM | TGI (EKVX NSCLC): 72.5 µM | TGI (NCI-H522 lung): 50.4 µM | TGI (UACC-257 melanoma): 48.8 µM | TGI (U251 CNS): > 100 µM | TGI (SF-295 CNS): 43 µM | TGI (LOX IMVI melanoma): 64.4 µM | TGI (UO-31 renal): 68.9 µM | TGI (SK-MEL-28 melanoma): > 100 µM | TGI (SR leukemia): 80.9 µM | TGI (XF 498 CNS): 36.1 µM | TGI (CAKI-1 renal): 57.9 µM | TGI (786-0 renal): > 100 µM | TGI (HCC-2998 colon): 86.5 µM | TGI (SF-268 CNS): > 100 µM | TGI (RPMI-8226 leukemia): 55.2 µM | TGI (A549 NSCLC): 84.3 µM | TGI (NCI-H23 lung): 40.3 µM | TGI (SW-620 colon): > 100 µM | TGI (HOP-18 NSCLC): > 100 µM | TGI (DMS 114 small cell lung): 51.3 µM | TGI (SNB-78 CNS): > 100 µM | TGI (UACC-62 melanoma): 56.9 µM | TGI (HT29 colon): > 100 µM | TGI (MOLT-4 leukemia): 65.5 µM | TGI (SN12C renal): > 100 µM | TGI (MALME-3M melanoma): 55.7 µM | TGI (DMS 273 small cell lung): 36.3 µM | TGI (SK-OV-3 ovarian): 84.6 µM | TGI (KM20L2 colon): 88.4 µM | TGI (HOP-92 NSCLC): 50.4 µM | TGI (K-562 leukemia): 86.9 µM | TGI (HCT-116 colon): 50.4 µM | TGI (RXF 393 renal): 63 µM | TGI (A498 renal): 47.8 µM | TGI (TK-10 renal): 75.5 µM | TGI (LXFL 529 NSCLC): 87.7 µM
